In patent US12441730B2, “PRMT5 inhibitors” (Merck Sharp & Dohme LLC, priority 2019, dated 2025):

How the values were obtained:
[1] = biological target: T1, Full-length (FL)-PRMT5-MEP50 enzyme complex (Homo sapiens, UniProt O14744); assay: PRMT5-MEP50 Enzyme Methylation Assay (Version B); format: biochemical
T1 construct: Full-length (FL)-PRMT5-MEP50 enzyme complex (recombinant proteins from baculovirus-transfected Sf21 cells: FL-PRMT5; MW=73837 kDa and FL-MEP50; MW=38614); made in house; host or cells: baculovirus-transfected Sf21 cells
Description: PRMT5-MEP50 Enzyme Methylation Assay (Version B)
PRMT5/MEP50 biochemical assay is a direct measurement of the methylation activity of the enzyme complex on a short peptide substrate derived from the N-terminus of H4 histone. Methylation experiment was performed with recombinant protein. The assessment of inhibitory effect (IC50) of small molecules was measured by the effectiveness of the compounds to inhibit this reaction.
In this assay, the potency (IC50) of each compound was determined from a twenty-point (1:2 serial dilution; top compound concentration of 100000 nM) titration curve using the following outlined procedure. To each well of a white ProxiPlus 384 well-plate, 100 nL of compound (1% DMSO in final assay volume of 10 μL) was dispensed, followed by the addition of 8 μL of 1× assay buffer (50 mM Bicine pH 8.0, 1 mM DTT, 0.004% Tween20, 0.01% BSA) containing 0.5 nM of Full-length (FL)-PRMT5-MEP50 enzyme complex (recombinant proteins from baculovirus-transfected Sf21 cells: FL-PRMT5; MW=[…] and FL-MEP50; MW=38614). Plates were sealed and placed in a 37° C. humidified chamber for 30 minutes pre-incubation with compounds. Subsequently, each reaction was initiated by the addition of 2 μL 1× assay buffer containing 75 nM biotinylated H4R3 (Me1) peptide, and 15 μM S-(5′-Adenosyl)-L-Methionine Chloride (SAM). The final reaction in each well of 10 μL consists of 0.5 nM PRMT5-MEP50, 75 nM biotinylated-peptide, and 15 μM SAM. Methylation reactions were allowed to proceed for 150 minutes in a sealed plate at 37° C. Reactions were immediately quenched by the addition of 1 μL of 10% formic acid. Plates were then frozen and shipped to SAMDI™ Tech Inc. to determine the percent conversion from […]. EC50 values were determined by non-linear regression according to models for either sigmoidal (4 parameters) or biphasic (7 parameters) dose-response curves.

[2] = system: symmetric dimethylation of arginine (SDMA) of PRMT5 substrates in MCF-7 cells; assay: PRMT5 Cell Target Engagement (TE) Assay; format: cell-based; settings: 3 days treatment, SDMA high content imaging
In short: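 MCF-7 cells treated 3 days at 37 °C with a ten-point 1:3 titration from 10000 nM. Fixed cells immunostained with anti-SDMA and Alexa488 secondary; nuclear fluorescence quantified by high-content imaging versus DMSO wells, with IC50 from a 4-parameter fit.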

[3] = biological target: T1, Full-length (FL)-PRMT5-MEP50 enzyme complex; assay: PRMT5-MEP50 Enzyme Methylation Assay (Version A); format: biochemical
In short: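 Compound was pre-incubated with enzyme for 60 min, then reacted 150 min at 37° C. at final 1.0 nM PRMT5-MEP50, 15 μM SAM and 75 nM biotinylated H4R3(Me1) peptide, in 50 mM Bicine pH 8.0 with 1% DMSO. SAMDI mass-spectrometric readout of Me1→Me2 conversion. EC50 from 4- or 7-parameter regression.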

[4] = second value of 7 parameter biphasic fit, read-out: Enzyme Methylation Assay Version B (EC50 2)
[5] = single EC50 = 4 parameter single site sigmoidal fit, EC50 1 = first value of 7 parameter biphasic fit, read-out: Enzyme Methylation Assay Version B (EC50 or EC50 1)
[6] = single EC50 = 4 parameter single site sigmoidal fit, EC50 1 = first value of 7 parameter biphasic fit, read-out: Enzyme Methylation Assay Version A (EC50 or EC50 1)
[7] = second value of 7 parameter biphasic fit, read-out: Enzyme Methylation Assay Version A (EC50 2)

T1 sequence (O14744 whole entry): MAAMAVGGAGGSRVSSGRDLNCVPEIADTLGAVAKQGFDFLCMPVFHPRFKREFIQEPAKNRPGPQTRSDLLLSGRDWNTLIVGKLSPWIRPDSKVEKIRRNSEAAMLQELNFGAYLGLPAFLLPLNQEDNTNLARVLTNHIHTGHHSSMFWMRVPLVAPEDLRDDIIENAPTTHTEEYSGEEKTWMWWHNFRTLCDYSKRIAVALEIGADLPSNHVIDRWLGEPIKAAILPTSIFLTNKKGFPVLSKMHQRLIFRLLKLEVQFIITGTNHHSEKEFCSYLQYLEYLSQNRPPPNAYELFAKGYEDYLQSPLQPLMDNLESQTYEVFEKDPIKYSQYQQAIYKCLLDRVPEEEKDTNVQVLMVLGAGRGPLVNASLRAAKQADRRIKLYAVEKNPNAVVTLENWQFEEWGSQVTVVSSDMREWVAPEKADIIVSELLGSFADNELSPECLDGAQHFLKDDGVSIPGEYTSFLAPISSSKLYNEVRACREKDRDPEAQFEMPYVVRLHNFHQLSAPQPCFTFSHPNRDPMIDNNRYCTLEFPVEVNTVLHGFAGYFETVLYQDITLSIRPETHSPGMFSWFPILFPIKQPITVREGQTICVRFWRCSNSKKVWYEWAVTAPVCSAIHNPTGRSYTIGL
T1 sequence (Q9BQA1 whole entry partner): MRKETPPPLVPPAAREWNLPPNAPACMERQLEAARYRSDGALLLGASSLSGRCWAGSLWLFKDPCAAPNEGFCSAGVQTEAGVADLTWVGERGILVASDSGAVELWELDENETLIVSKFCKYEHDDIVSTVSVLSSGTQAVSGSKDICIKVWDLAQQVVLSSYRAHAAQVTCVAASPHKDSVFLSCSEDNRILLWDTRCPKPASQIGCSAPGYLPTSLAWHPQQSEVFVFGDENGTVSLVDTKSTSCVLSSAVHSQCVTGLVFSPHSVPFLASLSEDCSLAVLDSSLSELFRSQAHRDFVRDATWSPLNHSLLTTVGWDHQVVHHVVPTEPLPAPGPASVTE

Row | EC50 [2] [µM] | EC50 ([2]; Homo sapiens, MCF7, 72 h) [µM] | EC50 [3, 6] [µM] | EC50 [3, 7] [µM] | Compound | EC50 [1, 4] [µM] | EC50 [1, 5] [µM]
1 | ≥ 10 | – | – | – | CC(=O)N1CCC(Nc2cc(C(=O)N3CCC4(Cc5ccccc5CN4)C(O)C3)ncn2)CC1 (single isomer, unassigned) [Example 90, A diastereomer of 1-[4-({6-[(3′-hydroxy-1,4-dihydro-1′H,2H-spiro[isoquinoline-3,4′-piperidin]-1′-yl)carbonyl]-4-pyrimidinyl}amino)-1-piperidinyl]ethanone] | – | 0.206
2 | 0.305 | – | – | – | CC(=O)N1CCC(Nc2cc(C(=O)N3CCC4(Cc5ccccc5CN4)C(O)C3)ncn2)CC1 (single isomer, unassigned) [Example 91, A diastereomer of 1-[4-({6-[(3′-hydroxy-1,4-dihydro-1′H,2H-spiro[isoquinoline-3,4′-piperidin]-1′-yl)carbonyl]-4-pyrimidinyl}amino)-1-piperidinyl]ethanone] | 0.513 | 0.00165
3 | ≥ 10 | – | – | – | CC(=O)N1CCC(Nc2cc(C(=O)N3CCC4(Cc5ccccc5CN4)C(O)C3)ncn2)CC1 (single isomer, unassigned) [Example 92, A diastereomer of 1-[4-({6-[(3′-hydroxy-1,4-dihydro-1′H,2H-spiro[isoquinoline-3,4′-piperidin]-1′-yl)carbonyl]-4-pyrimidinyl}amino)-1-piperidinyl]ethanone] | – | 0.944
4 | – | 0.00359 | 0.00117 | – | CO[C@H](C)c1cc(-c2ccnn2C(C)C)cn2cc(C(=O)N3CC[C@]4(Cc5ccccc5CN4)[C@H](O)C3)nc12 [Example 243, [(3R,3′R)-3′-hydroxy-1,4-dihydro-1′H,2H-spiro[isoquinoline-3,4′-piperidin]-1′-yl]{6-(1-isopropyl-1H-pyrazol-5-yl)-8-[(1R)-1-methoxyethyl]imidazo[1,2-a]pyridin-2-yl}methanone] | – | –
5 | – | 0.00168 | 0.000675 | – | CO[C@H](C)c1cc(-c2sc(C)nc2C)cn2cc(C(=O)N3CC[C@]4(Cc5ccccc5CN4)[C@H](O)C3)nc12 [Example 244, {6-(2,4-dimethyl-1,3-thiazol-5-yl)-8-[(1R)-1-methoxyethyl]imidazo[1,2-a]pyridin-2-yl}[(3R,3′R)-3′-hydroxy-1,4-dihydro-1′H,2H-spiro[isoquinoline-3,4′-piperidin]-1′-yl]methanone] | – | –
6 | – | 0.00265 | 0.00124 | – | CO[C@H](C)c1cc(-c2cnn(C)c2C)cn2cc(C(=O)N3CC[C@]4(Cc5ccccc5CN4)[C@H](O)C3)nc12 [Example 245, {6-(1,5-dimethyl-1H-pyrazol-4-yl)-8-[(1R)-1-methoxyethyl]imidazo[1,2-a]pyridin-2-yl}[(3R,3′R)-3′-hydroxy-1,4-dihydro-1′H,2H-spiro[isoquinoline-3,4′-piperidin]-1′-yl]methanone] | – | –
7 | – | 0.00631 | 0.000977 | – | CO[C@H](C)c1cc(-c2conc2C)cn2cc(C(=O)N3CC[C@]4(Cc5ccccc5CN4)[C@H](O)C3)nc12 [Example 246, [(3R,3′R)-3′-hydroxy-1,4-dihydro-1′H,2H-spiro[isoquinoline-3,4′-piperidin]-1′-yl]{8-[(1R)-1-methoxyethyl]-6-(3-methyl-4-isoxazolyl)imidazo[1,2-a]pyridin-2-yl}methanone] | – | –
8 | – | 0.0753 | 0.000661 | 0.646 | CO[C@H](C)c1cc(CN2CCCC2)cn2cc(C(=O)N3CC[C@]4(Cc5ccccc5CN4)[C@H](O)C3)nc12 [Example 247, [(3R,3′R)-3′-hydroxy-1,4-dihydro-1′H,2H-spiro[isoquinoline-3,4′-piperidin]-1′-yl]{8-[(1R)-1-methoxyethyl]-6-(1-pyrrolidinylmethyl)imidazo[1,2-a]pyridin-2-yl}methanone] | – | –
9 | – | 1.73 | 0.611 | – | COCc1nc(C)cn2cc(C(=O)N3CC[C@]4(Cc5ccccc5CN4)[C@H](O)C3)nc12 [Example 250, [(3R,3′R)-3′-hydroxy-1,4-dihydro-1′H,2H-spiro[isoquinoline-3,4′-piperidin]-1′-yl][8-(methoxymethyl)-6-methylimidazo[1,2-a]pyrazin-2-yl]methanone] | – | –
10 | – | 1.85 | 0.547 | – | COc1nc2nc(C(=O)N3CC[C@]4(Cc5ccccc5CN4)[C@H](O)C3)cn2cc1C1CC1 [Example 251, (6-cyclopropyl-7-methoxyimidazo[1,2-a]pyrimidin-2-yl)[(3R,3′R)-3′-hydroxy-1,4-dihydro-1′H,2H-spiro[isoquinoline-3,4′-piperidin]-1′-yl]methanone] | – | –
11 | – | 0.68 | 0.0117 | 7.08 | Cc1cn2cc(C(=O)N3CC[C@]4(Cc5ccccc5CN4)[C@H](O)C3)nc2c(Cl)n1 [Example 252, (8-chloro-6-methylimidazo[1,2-a]pyrazin-2-yl)[(3R,3′R)-3′-hydroxy-1,4-dihydro-1′H,2H-spiro[isoquinoline-3,4′-piperidin]-1′-yl]methanone] | – | –
12 | – | 0.00647 | 0.000929 | 0.733 | CC1OC(=O)Nc2cc(C(=O)N3CC[C@]4(Cc5ccccc5CN4)[C@H](O)C3)ccc21 (stereo partly drawn) [compound 171, 7-{[(3R,3′R)-3′-hydroxy-1,4-dihydro-1′H,2H-spiro[isoquinoline-3,4′-piperidin]-1′-yl]carbonyl}-4-methyl-1,4-dihydro-2H-3,1-benzoxazin-2-one] | – | –
13 | 0.115 | – | 0.0056 | 3.06 | A diastereomer of [(3R,3′R)-3′- hydroxy-1,4-dihydro-1′H,2H- spiro[isoquinoline-3,4′-piperidin]-1′- yl][6-isopropyl-8-(1- methoxyethyl)imidazo[1,2- a]pyridin-2-yl]methanone [Example 85] | – | –

Row | Compound | EC50 [2] [µM] | EC50 ([2]; Homo sapiens, MCF7, 72 h) [µM] | EC50 [3, 6] [µM] | EC50 [3, 7] [µM] | EC50 [1, 4] [µM] | EC50 [1, 5] [µM]
14 | CCOc1cc(C(=O)N2C3CCC2COC3)ccc1C(=O)N1CCC2(Cc3ccccc3CN2)C(O)C1 (single isomer, unassigned) [Example 86, A diastereomer of {3-ethoxy-4-[(3′-hydroxy-1,4-dihydro-1′H,2H-spiro[isoquinoline-3,4′-piperidin]-1′-yl)carbonyl]phenyl}(3-oxa-8-azabicyclo[3.2.1]oct-8-yl)methanone] | 1.47 | – | – | – | 28.8 | 0.0822
15 | CCOc1cc(C(=O)N2C3CCC2COC3)ccc1C(=O)N1CCC2(Cc3ccccc3CN2)C(O)C1 (single isomer, unassigned) [Example 87, A diastereomer of {3-ethoxy-4-[(3′-hydroxy-1,4-dihydro-1′H,2H-spiro[isoquinoline-3,4′-piperidin]-1′-yl)carbonyl]phenyl}(3-oxa-8-azabicyclo[3.2.1]oct-8-yl)methanone] | 0.00916 | – | – | – | 0.671 | 0.00354
16 | CCOc1cc(C(=O)N2C3CCC2COC3)ccc1C(=O)N1CCC2(Cc3ccccc3CN2)C(O)C1 (single isomer, unassigned) [Example 88, A diastereomer of {3-ethoxy-4-[(3′-hydroxy-1,4-dihydro-1′H,2H-spiro[isoquinoline-3,4′-piperidin]-1′-yl)carbonyl]phenyl}(3-oxa-8-azabicyclo[3.2.1]oct-8-yl)methanone] | – | 4.29 | – | – | – | 0.964
17 | CCOc1cc(C(=O)N2C3CCC2COC3)ccc1C(=O)N1CCC2(Cc3ccccc3CN2)C(O)C1 (single isomer, unassigned) [Example 89, A diastereomer of {3-ethoxy-4-[(3′-hydroxy-1,4-dihydro-1′H,2H-spiro[isoquinoline-3,4′-piperidin]-1′-yl)carbonyl]phenyl}(3-oxa-8-azabicyclo[3.2.1]oct-8-yl)methanone] | 0.00688 | – | – | – | 1.98 | 0.00481
